# Source: PubChem BioAssay AID330 (DTP/NCI, 2004)
# Values joined by “and” are separate entries in the source; they are usually repeats but may differ in a detail not shown here. Identical values can stand only once. Toxic doses and inconclusive results are not listed.
# Tested on: P388 leukemia ip, CD2F1 mice, survival T/C
# Assay: NCI In Vivo Anticancer Drug Screen. Data for tumor model P388 Leukemia (intraperitoneal) in CD2F1 (CDF1) mice
# Settings: endpoint: median survival time, higher = longer survival
# Method in brief: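 Mice carrying the transplanted tumor received test compound or vehicle. Survival was recorded in each group, and the value is the treated-group measurement divided by that of the vehicle-treated control group.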
# [1] = dose: 60.0 mg/kg/injection, schedule: Q01DX005 (ip), vehicle: saline with Tween-80
# [2] = dose: 120.0 mg/kg/injection, schedule: Q01DX005 (ip), vehicle: saline with Tween-80
# [3] = dose: 240.0 mg/kg/injection, schedule: Q01DX005 (ip), vehicle: saline with Tween-80
# [4] = dose: 15.0 mg/kg/injection, schedule: Q01DX005 (ip), vehicle: saline with Tween-80
# [5] = dose: 100.0 mg/kg/injection, schedule: Q01DX009 (ip), vehicle: saline with Tween-80
# [6] = dose: 200.0 mg/kg/injection, schedule: Q01DX009 (ip), vehicle: saline with Tween-80
# [7] = dose: 6.25 mg/kg/injection, schedule: Q01DX009 (ip), vehicle: saline with Tween-80
# [8] = dose: 12.5 mg/kg/injection, schedule: Q01DX009 (ip), vehicle: saline with Tween-80
# [9] = dose: 25.0 mg/kg/injection, schedule: Q01DX009 (ip), vehicle: saline with Tween-80
# [10] = dose: 50.0 mg/kg/injection, schedule: Q01DX005 (ip), vehicle: saline with Tween-80
# [11] = dose: 100.0 mg/kg/injection, schedule: Q01DX005 (ip), vehicle: saline with Tween-80
# [12] = dose: 50.0 mg/kg/injection, schedule: Q01DX009 (ip), vehicle: saline with Tween-80
# [13] = dose: 100.0 mg/kg/injection, schedule: Q04DX003 (ip), vehicle: saline with Tween-80
# [14] = dose: 200.0 mg/kg/injection, schedule: Q01DX005 (ip), vehicle: saline with Tween-80
compound,measurement,setting,value
O=C(Nc1cccc(C(F)(F)F)c1)Oc1ccc(Cl)cc1C(=O)c1ccccc1,T/C,"dose: 50.0 mg/kg/injection, schedule: Q01DX009 (ip), vehicle: saline",97 % of control
same,T/C,"dose: 100.0 mg/kg/injection, schedule: Q01DX009 (ip), vehicle: saline",92 % of control
same,T/C,"dose: 200.0 mg/kg/injection, schedule: Q01DX009 (ip), vehicle: saline",96 % of control
O=C(O)c1ccccc1N/N=C\c1cc(/C=N/Nc2ccccc2C(=O)O)nc2[nH]c(=O)ccc12,T/C,"dose: 100.0 mg/kg/injection, schedule: Q04DX002 (ip), vehicle: Klucel (hydroxypropylcellulose) (HPC)",102 % of control
same,T/C,"dose: 200.0 mg/kg/injection, schedule: Q04DX002 (ip), vehicle: Klucel (hydroxypropylcellulose) (HPC)",107 % of control
same,T/C,"dose: 400.0 mg/kg/injection, schedule: Q04DX002 (ip), vehicle: Klucel (hydroxypropylcellulose) (HPC)",105 % of control
CSc1nc(NC2OCC(OC(C)=O)C(OC(C)=O)C2OC(C)=O)c(N=CC=Nc2c(NC3OCC(OC(C)=O)C(OC(C)=O)C3OC(C)=O)nc(SC)[nH]c2=O)c(=O)[nH]1 (configuration not stated),T/C,[1],90 % of control
same,T/C,[2],92 % of control
same,T/C,[3],89 % of control
c1ccc2cc(OCC3CO3)c(OCC3CO3)cc2c1 (configuration not stated),T/C,"dose: 1.88 mg/kg/injection, schedule: Q01DX005 (ip), vehicle: saline with Tween-80",100 % of control
same,T/C,"dose: 3.75 mg/kg/injection, schedule: Q01DX005 (ip), vehicle: saline with Tween-80",107 % of control
same,T/C,"dose: 7.5 mg/kg/injection, schedule: Q01DX005 (ip), vehicle: saline with Tween-80",116 % of control
same,T/C,[4],122 % of control
same,T/C,[2],151 % of control
CCOC(=O)CN1C=CC(=C/C(=N/S(=O)(=O)c2ccc(C)cc2)SC)C=C1,T/C,"dose: 25.0 mg/kg/injection, schedule: Q04DX002 (ip), vehicle: saline with Tween-80",100 % of control
same,T/C,"dose: 50.0 mg/kg/injection, schedule: Q04DX002 (ip), vehicle: saline with Tween-80",106 % of control
same,T/C,"dose: 100.0 mg/kg/injection, schedule: Q04DX002 (ip), vehicle: saline with Tween-80",104 % of control
CCOC(=O)C1=C(C)N(Cc2ccccc2)C(C)=C(C(=O)OCC)C1(C)C,T/C,[5],104 % of control
same,T/C,[6],118 % of control
same,T/C,"dose: 400.0 mg/kg/injection, schedule: Q01DX009 (ip), vehicle: saline with Tween-80",118 % of control
Cc1ccc(S(=O)(=O)NCCCc2ccccc2)cc1,T/C,"dose: 50.0 mg/kg/injection, schedule: Q01DX009 (ip), vehicle: Klucel (hydroxypropylcellulose) (HPC)",118 % of control
same,T/C,"dose: 100.0 mg/kg/injection, schedule: Q01DX009 (ip), vehicle: Klucel (hydroxypropylcellulose) (HPC)",123 % of control
same,T/C,"dose: 200.0 mg/kg/injection, schedule: Q01DX009 (ip), vehicle: Klucel (hydroxypropylcellulose) (HPC)",115 % of control
O=C(C[n+]1ccccc1)N/N=C/c1ccc([N+](=O)[O-])s1,T/C,[7],100 % of control
same,T/C,"dose: 6.25 mg/kg/injection, schedule: Q01DX009 (ip), vehicle: saline",104 % of control
same,T/C,[8],96 % of control
same,T/C,"dose: 12.5 mg/kg/injection, schedule: Q01DX009 (ip), vehicle: saline",100 % of control
same,T/C,[9],116 % of control
same,T/C,"dose: 25.0 mg/kg/injection, schedule: Q01DX009 (ip), vehicle: saline",100 % of control
CCCCCc1onc(-c2noc(CCCCC)c2C)c1C,T/C,"dose: 60.0 mg/kg/injection, schedule: Q01DX005 (ip), vehicle: saline",100 % of control
same,T/C,"dose: 120.0 mg/kg/injection, schedule: Q01DX005 (ip), vehicle: saline",99 % of control
same,T/C,"dose: 240.0 mg/kg/injection, schedule: Q01DX005 (ip), vehicle: saline",104 % of control
CCOC(=O)N(O)c1ccc(C)cc1C,T/C,[10],96 % of control
same,T/C,[11],102 % of control
BrCC1(CBr)OCCO1,T/C,[12],106 % of control
CC1OC(OC2C(Oc3ccc4c(=O)c(-c5ccc(O)c(O)c5O)coc4c3)OC(CO)C(O)C2O)C(O)C(O)C1O (configuration not stated),T/C,[1],103 % of control
same,T/C,[2],101 % of control
same,T/C,[3],103 % of control
Cc1cc(N(CCOS(C)(=O)=O)CCOS(C)(=O)=O)ccc1C=Nc1ccc(-c2csc(-c3ccc(Br)cc3)n2)cc1,T/C,[9],180 % of control
same,T/C,[12],209 % of control
same,T/C,[5],98 % of control and 90 % of control
CC(C)CC(NC(=O)OCC[P+](c1ccccc1)(c1ccccc1)c1ccccc1)C(=O)O (configuration not stated),T/C,"dose: 6.25 mg/kg/injection, schedule: Q04DX003 (ip), vehicle: saline",102 % of control
same,T/C,"dose: 12.5 mg/kg/injection, schedule: Q04DX003 (ip), vehicle: saline",105 % of control
same,T/C,"dose: 25.0 mg/kg/injection, schedule: Q04DX003 (ip), vehicle: saline",112 % of control
same,T/C,"dose: 50.0 mg/kg/injection, schedule: Q04DX003 (ip), vehicle: saline",121 % of control
C=C1C(=O)OC2/C=C(\C)C(OC(C)=O)/C=C\C(C)(O)CC(OC(=O)/C(C)=C/C)C12 (configuration not stated),T/C,"dose: 10.0 mg/kg/injection, schedule: Q01DX009 (ip), vehicle: saline with Tween-80",105 % of control
same,T/C,"dose: 20.0 mg/kg/injection, schedule: Q01DX009 (ip), vehicle: saline with Tween-80",99 % of control
same,T/C,"dose: 40.0 mg/kg/injection, schedule: Q01DX009 (ip), vehicle: saline with Tween-80",110 % of control
same,T/C,"dose: 80.0 mg/kg/injection, schedule: Q01DX009 (ip), vehicle: saline with Tween-80",115 % of control
CC1CCCC(OC(=O)Nc2ccccc2)C1 (configuration not stated),T/C,[13],105 % of control
same,T/C,"dose: 200.0 mg/kg/injection, schedule: Q04DX003 (ip), vehicle: saline with Tween-80",103 % of control
same,T/C,"dose: 400.0 mg/kg/injection, schedule: Q04DX003 (ip), vehicle: saline with Tween-80",96 % of control
CCCCCCC(=O)NC1=C(N2CC2)C(=O)C(NC(=O)CCCCCC)=C(N2CC2)C1=O,T/C,"dose: 12.5 mg/kg/injection, schedule: Q04DX003 (ip), vehicle: saline with Tween-80",100 % of control
same,T/C,"dose: 25.0 mg/kg/injection, schedule: Q04DX003 (ip), vehicle: saline with Tween-80",109 % of control
same,T/C,[5],245 % of control
same,T/C,[13],159 % of control
same,T/C,"dose: 150.0 mg/kg/injection, schedule: Q04DX003 (ip), vehicle: saline with Tween-80",195 % of control
same,T/C,[6],120 % of control
CCOC(=O)C1C(=O)CN(C(=O)OC)C1C(=O)OCC (configuration not stated),T/C,[10],99 % of control
same,T/C,[11],95 % of control
same,T/C,[14],95 % of control
CNC(=O)SCCC(=O)OC,T/C,[10],98 % of control
same,T/C,[11],100 % of control
same,T/C,[14],100 % of control
CCOCC(=O)[C@]1(O)Cc2c(O)c3c(c(O)c2[C@@H](OC2CC(N)C(O)C(C)O2)C1)C(=O)c1c(OC)cccc1C3=O (some centres not stated),T/C,"dose: 1.56 mg/kg/injection, schedule: Q01DX009 (ip), vehicle: water",153 % of control
same,T/C,"dose: 3.13 mg/kg/injection, schedule: Q01DX009 (ip), vehicle: water",158 % of control and 163 % of control
C/C(=C\C(=O)O)Cc1ccccc1 (tested in a mixture with another compound),T/C,"dose: 100.0 mg/kg/injection, schedule: Q04DX003 (ip), vehicle: other",108 % of control
same,T/C,"dose: 200.0 mg/kg/injection, schedule: Q04DX003 (ip), vehicle: other",100 % of control
same,T/C,"dose: 400.0 mg/kg/injection, schedule: Q04DX003 (ip), vehicle: other",108 % of control
Cn1c(=O)c2[nH]c(C3CCCC3)nc2n(C)c1=O,T/C,"dose: 3.13 mg/kg/injection, schedule: Q01DX009 (ip), vehicle: saline with Tween-80",94 % of control
same,T/C,[7],103 % of control
same,T/C,[8],103 % of control
same,T/C,[9],92 % of control
CCOC(=O)C1C2CCC(O2)C1C#N (configuration not stated),T/C,[4],100 % of control
same,T/C,"dose: 30.0 mg/kg/injection, schedule: Q01DX005 (ip), vehicle: saline with Tween-80",101 % of control
same,T/C,[1],93 % of control
O=C(Cc1nc2ccc(Cl)cc2[nH]c1=O)c1ccccc1,T/C,[1],112 % of control
same,T/C,[2],108 % of control
same,T/C,[3],107 % of control
CNC(=O)Oc1ccc(Nc2ccccc2)cc1,T/C,"dose: 60.0 mg/kg/injection, schedule: Q01DX005 (ip), vehicle: Klucel (hydroxypropylcellulose) (HPC)",105 % of control
same,T/C,"dose: 120.0 mg/kg/injection, schedule: Q01DX005 (ip), vehicle: Klucel (hydroxypropylcellulose) (HPC)",99 % of control
same,T/C,"dose: 240.0 mg/kg/injection, schedule: Q01DX005 (ip), vehicle: Klucel (hydroxypropylcellulose) (HPC)",97 % of control
